Legend:
[1] = system: IL-1 (Interleukin-1) induced IL-8 (Interleukin-8) production in SW1353 human chondrosarcoma cells; experiment: glucocorticoid inhibition of IL-1 induced IL-8 production in human chondrosarcoma cells; type: cell-based; conditions: 20 ng/ml IL-1 beta, 24 hours after addition of IL-1, IL-8 ELISA, read-out: IC50, inhibitor of IL-8 expression
Method: (§1) This assay, the glucocorticoid inhibition of IL-1 (Interleukin-1) induced MMP-1 (Matrix Metalloproteinase-1) and IL-8 (Interleukin-8) production in human chondrosarcoma cells, is conducted as follows: SW1353 human chondrosarcoma cells (obtained from ATCC) from passage 12 through passage 19 are used in a 96 well format assay. Cells are plated at confluence into 96 well plates in DMEM (Dulbecco's Modified Eagle Medium) with 10% fetal bovine serum and incubated at 37° C., 5% CO2. After 24 hours, serum containing media is removed and replaced with 200 ul/well DMEM containing 1 mg/L insulin, 2 g/L lactalbumin hydrosylate, and 0.5 mg/L ascorbic acid and returned to incubation at 37° C., 5% CO2. […] IL-8 production is assessed using the Quantikine human IL-8 ELISA kit from R&D Systems (D8050) on samples diluted 60. fold in RD5P Calibrator Diluent, following the manufacturer's protocol. The percent of the average IL-1 control is determined for the average of each of the triplicate samples following subtraction of the average signal from untreated cells. IC50's are determined from log linear plots of the percent of control versus the concentration of inhibitor. […] MMP-1 production is assessed via the Bio-Trak MMP-1 ELISA kit from Amersham (RPN2610) on 100 ul of neat sample following the manufacturer's protocol. […]

[2] = system: IL-1 (Interleukin-1) induced MMP-1 (Matrix Metalloproteinase-1) production in SW1353 human chondrosarcoma cells; experiment: glucocorticoid inhibition of IL-1 induced MMP-1 production in human chondrosarcoma cells; type: cell-based; conditions: 20 ng/ml IL-1 beta, 72 hours after IL-1 addition, MMP-1 ELISA, read-out: IC50, inhibitor of MMP1 expression
Method: as §1

C[C@@H]1C[C@H]2[C@@H]3CCC4=CC(=O)C=C[C@]4(C)[C@@]3(F)[C@@H](O)C[C@]2(C)[C@@]1(O)C(=O)CO [Dexamethasone, (11β,16α)-9-fluoro-11,17,21-trihydroxy-16-methylpregna-1,4-diene-3,20-dione]
IC50 [1]: 5 nM | IC50 [2]: 5 nM
